How the values were obtained:
[1] = tested on: normal human dermal fibroblast cultures; assay: effect of resveratrol on the synthesis of collagen: incorporation of tritiated proline into newly synthesized proteins of normal human dermal fibroblast cultures; format: cell-based; parameters: dose or concentration left out as unconfirmed; conditions: positive control; not treated 22,528 cpm
Experimental: (§1) Investigating the effect of resveratrol on the synthesis of collagen: This study was carried out by measuring the incorporation of radioactive proline into the proteins newly synthesized by normal human dermal fibroblast cultures. These newly synthesized proteins were predominantly collagen fibers. The fibroblast cultures were conducted according to conventional cell culture techniques, namely, in MEM/M199 medium marketed by Gibco, in the presence of sodium bicarbonate (1.87 mg/ml), of L-glutamine (2 mM), of penicillin (50 IU/ml) and of 10% fetal calf serum (Gibco). The test was carried out on 80% confluent cell cultures in a 24-well plate. […] The labelling with tritiated proline (L-[2,3-^3 H]proline marketed by Amersham, 33 mCi/ml) was conducted for 24 hours. The amount of tritiated proline incorporated was measured at the end of the test by acid precipitation of the proteins on filters and liquid scintillation counting. The results were evaluated relative to a control consisting of cells which were not treated with resveratrol. A positive control (vitamin C at 20 mg/ml) known to stimulate the synthesis of collagen was included in the test as a reference.

[2] = tested on: normal human dermal fibroblast cultures; assay: as above; format: cell-based
Experimental: as §1

[3] = tested on: interstitial collagenase (A2058 cells); assay: effect of resveratrol on the production of interstitial collagenase in a culture of A2058 cells (Elisa); format: cell-based, human
Experimental: Effect of resveratrol on the expression of the collagenases:
The effect of resveratrol on the production of interstitial collagenase was evaluated in a model of culture of A2058 cells (derived from human malanomas: Templeton N. S. et al., Cancer Res., SO.- 54315431(1990)).
The cells were incubated in a phenol red-free MEM medium containing amino acids at the concentration of 2 mM, sodium pyruvate at the concentration of 1 mM and 10% charcoal-treated calf serum. They were then cultured at the density of 20,000 cells per well in the 24 wells of a multiwell plate.
Twenty-four hours after cultering, the cells were contacted with resveratrol. The production of interstitial collagenase was evaluated 96 hours later in the culture medium. This was carried out with the aid of an Elisa kit (Biotrack human MMPL; Amersham).
The resveratrol was tested at the concentrations 2×10^-7 M and 2×10^-6 M.
The results, expressed as percentages, represent the reduction in the production of interstitial collagenase compared with the control, namely, compared with a culture carried out under the same conditions in the absence of resveratrol.

[4] = tested on: normal human dermal fibroblast cultures; assay: effect of resveratrol on the proliferation of the fibroblasts of the dermis: incorporation of radioactive thymidine into normal human dermal fibroblast cultures; format: cell-based; conditions: for tritiated thymidine incorporated (cpm): 48 hours contact, labelling 24 hours, not treated 13,649 cpm
Experimental: Investigating the effect of resveratrol on the proliferation of the fibroblasts of the dermis:
This study was carried out by measuring the incorporation of radioactive thymidine into normal human dermal fibroblast cultures.
The fibroblast cultures were conducted according to conventional cell culture techniques, namely in MEM/M199 medium marketed by Gibco, in the presence of sodium bicarbonate (1.87 mg/ml), of L-glutamine (2 mM), of penicillin (50 IU/ml) and of 10% fetal calf serum (Gibco).
The test was carried out on 80% confluent cell cultures in a 24-well plate. Resveratrol, at the concentration of 1.25 mM and 5 mM, was placed in contact with the cells for 48 hours. The labelling with tritiated thymidine ([methyl-^3 H]thymidine marketed by Amersham, 82 Ci/mmol) was conducted for 24 hours.
The amount of tritiated thymidine incorporated was measured at the end of the test by acid precipitation of the proteins on filters and liquid scintillation counting.
The results were evaluated relative to a control consisting of cells which were not treated with resveratrol.
A positive control (fetal calf serum at 20%) known to stimulate the […] was included in the test as a reference.

[5] = tested on: normal human dermal fibroblast cultures; assay: effect of resveratrol on the synthesis of collagen: incorporation of tritiated proline into newly synthesized proteins of normal human dermal fibroblast cultures; format: cell-based; parameters: unit of the concentration uncertain; conditions: 48 hours contact, labelling 24 hours, not treated 22,528 cpm
Experimental: as §1

SMILES | tritiated proline incorporated (cpm) [1] | activity at 20000 µg/mL ([2]; Homo sapiens, Fibroblast, 48 h, positive control, 20 mg/ml, not treated = 100, p <0.01, read-out: tritiated proline incorporated, % relative to not treated control) | inhibition at 0.2 µM ([3]; Homo sapiens, 0.2 μM, 96 hours, A2058 cells, read-out: % inhibition (reduction in the production of interstitial collagenase compared with the control)) | inhibition at 2 µM ([3]; Homo sapiens, 2 μM, 96 hours, A2058 cells, read-out: % inhibition (reduction in the production of interstitial collagenase compared with the control)) | production of interstitial collagenase by A2058 cells (in words) ([3]; conclusion from Table III) | tritiated thymidine incorporated (cpm) ([4]; 1.25 mM) | tritiated thymidine incorporated (cpm) ([4]; 5.00 mM) | activity at 1250 µM ([4]; Homo sapiens, Fibroblast, 1.25 mM, 48 hours, not treated = 100, p <0.05, read-out: tritiated thymidine incorporated, % relative to not treated control) | activity at 5000 µM ([4]; Homo sapiens, Fibroblast, 5.00 mM, 48 hours, not treated = 100, p <0.01, read-out: tritiated thymidine incorporated, % relative to not treated control) | tritiated proline incorporated (cpm) ([5]; 1.25 (unit uncertain)) | tritiated proline incorporated (cpm) ([5]; 5.00 (unit uncertain)) | activity at 1250 µM ([2]; Homo sapiens, Fibroblast, 1.25 mM, 48 hours, not treated = 100, p <0.01, read-out: tritiated proline incorporated, % relative to not treated control) | activity at 5000 µM ([2]; Homo sapiens, Fibroblast, 5.00 mM, 48 hours, not treated = 100, p <0.05, read-out: tritiated proline incorporated, % relative to not treated control) | incorporation of proline into collagen (in words) ([2]; conclusion from Table I)
O=C1O[C@H]([C@@H](O)CO)C(O)=C1O [Vitamin C, reference compound] | 36,431 cpm | 162% |  |  |  |  |  |  |  |  |  |  |  | 
Oc1ccc(C=Cc2cc(O)cc(O)c2)cc1 [Resveratrol, 3,4',5-trihydroxystilbene] |  |  | 14% | 57% | reduced the production of interstitial collegenase by the A 2058 cells and this in a dose-dependent manner | 15,055 cpm | 19,229 cpm | 110% | 141% | 27,164 cpm | 25,769 cpm | 121% | 114% | substantially stimulated the incorporation of proline into collagen
